# In article PMC2719774 (European journal of pharmaceutics and biopharmaceutics : …, 2009):
# “And” between values parts separate entries of the source, which are not always exact repeats. Equal entries are not always repeated.
# Tests used:
# UGT2B7 = molecular target: T1, UGT2B7 (Homo sapiens, UniProt P16662); assay: In vitro metabolism screening with UGT2B7 Supersomes; format: in vitro ADME; details: 37°C
# T1 sequence (P16662 24-529): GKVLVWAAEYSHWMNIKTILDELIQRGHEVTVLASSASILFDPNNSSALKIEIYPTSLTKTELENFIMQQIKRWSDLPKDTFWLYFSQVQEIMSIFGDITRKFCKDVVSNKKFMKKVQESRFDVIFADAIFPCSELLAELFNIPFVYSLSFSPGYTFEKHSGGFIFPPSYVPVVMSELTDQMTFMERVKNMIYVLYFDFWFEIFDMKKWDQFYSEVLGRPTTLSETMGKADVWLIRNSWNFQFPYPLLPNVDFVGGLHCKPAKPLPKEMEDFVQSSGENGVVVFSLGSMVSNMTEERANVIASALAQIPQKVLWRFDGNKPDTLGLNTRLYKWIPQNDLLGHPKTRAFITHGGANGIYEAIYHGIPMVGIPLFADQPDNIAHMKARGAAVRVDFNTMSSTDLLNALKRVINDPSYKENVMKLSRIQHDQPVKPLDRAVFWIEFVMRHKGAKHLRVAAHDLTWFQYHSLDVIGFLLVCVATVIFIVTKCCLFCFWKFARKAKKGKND
# [1] = test system: MDCK-MDR1 cell monolayers; details: 5 μM, 37°C, PBS; UV-HPLC limit of detection 100 ng/ml
# [2] = rhesus monkeys, plasma, single dose ref 24; cited from earlier work
# P-gp (MDR1) = assay: in vitro; details: dog, MDCK-MDR1
# [3] = Single-dose pharmacokinetics and brain distribution in rats; format: in vivo, male Sprague Dawley rats; details: rat; for t1/2 / half-life: 10 mg/kg i.p.
# [4] = PET imaging, female baboons ref 25; cited from earlier work
# CYP2C18 = molecular target: T2, CYP2C18 (Homo sapiens, UniProt P33260); assay: In vitro metabolism screening with recombinant CYP2C18; format: in vitro ADME; details: 1 h, 37°C
# T2 sequence (P33260 26-490): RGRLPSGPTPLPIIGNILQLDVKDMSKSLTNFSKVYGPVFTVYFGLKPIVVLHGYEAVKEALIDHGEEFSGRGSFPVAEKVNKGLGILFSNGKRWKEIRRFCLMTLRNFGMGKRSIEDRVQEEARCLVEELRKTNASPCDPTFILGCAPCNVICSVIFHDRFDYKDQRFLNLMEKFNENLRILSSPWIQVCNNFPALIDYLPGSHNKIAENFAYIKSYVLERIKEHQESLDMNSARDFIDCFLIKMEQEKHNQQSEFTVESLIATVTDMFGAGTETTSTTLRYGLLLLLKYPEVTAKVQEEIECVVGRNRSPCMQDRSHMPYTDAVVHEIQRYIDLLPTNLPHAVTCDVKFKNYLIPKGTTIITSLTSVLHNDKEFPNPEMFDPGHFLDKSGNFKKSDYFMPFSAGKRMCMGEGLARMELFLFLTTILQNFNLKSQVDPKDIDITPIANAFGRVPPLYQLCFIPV
# CYP1A1 = molecular target: T3, CYP1A1 (Homo sapiens, UniProt P04798); assay: In vitro metabolism screening with recombinant CYP1A1; format: in vitro ADME; details: 1 h, 37°C
# T3 sequence (P04798 1-512): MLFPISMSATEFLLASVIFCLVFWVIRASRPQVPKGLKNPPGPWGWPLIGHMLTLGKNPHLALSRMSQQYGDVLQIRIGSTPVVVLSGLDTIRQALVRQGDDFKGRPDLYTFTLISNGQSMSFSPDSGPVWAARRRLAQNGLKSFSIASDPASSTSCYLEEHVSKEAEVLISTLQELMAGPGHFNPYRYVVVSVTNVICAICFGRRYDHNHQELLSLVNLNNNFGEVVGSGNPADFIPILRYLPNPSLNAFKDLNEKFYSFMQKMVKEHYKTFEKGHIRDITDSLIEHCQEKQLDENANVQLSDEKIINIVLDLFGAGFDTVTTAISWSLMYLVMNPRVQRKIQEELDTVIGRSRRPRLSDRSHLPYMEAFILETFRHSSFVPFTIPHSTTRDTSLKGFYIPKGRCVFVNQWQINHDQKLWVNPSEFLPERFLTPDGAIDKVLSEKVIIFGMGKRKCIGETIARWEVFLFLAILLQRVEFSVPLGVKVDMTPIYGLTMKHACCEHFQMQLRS
# recombinant human P-gp = recombinant human P-gp (Homo sapiens, UniProt P08183); assay: P-gp ATPase activity; details: for Fold Stimulation of P-gp ATPase activity: relative to non treated
# recombinant human P-gp, sequence (P08183 whole entry): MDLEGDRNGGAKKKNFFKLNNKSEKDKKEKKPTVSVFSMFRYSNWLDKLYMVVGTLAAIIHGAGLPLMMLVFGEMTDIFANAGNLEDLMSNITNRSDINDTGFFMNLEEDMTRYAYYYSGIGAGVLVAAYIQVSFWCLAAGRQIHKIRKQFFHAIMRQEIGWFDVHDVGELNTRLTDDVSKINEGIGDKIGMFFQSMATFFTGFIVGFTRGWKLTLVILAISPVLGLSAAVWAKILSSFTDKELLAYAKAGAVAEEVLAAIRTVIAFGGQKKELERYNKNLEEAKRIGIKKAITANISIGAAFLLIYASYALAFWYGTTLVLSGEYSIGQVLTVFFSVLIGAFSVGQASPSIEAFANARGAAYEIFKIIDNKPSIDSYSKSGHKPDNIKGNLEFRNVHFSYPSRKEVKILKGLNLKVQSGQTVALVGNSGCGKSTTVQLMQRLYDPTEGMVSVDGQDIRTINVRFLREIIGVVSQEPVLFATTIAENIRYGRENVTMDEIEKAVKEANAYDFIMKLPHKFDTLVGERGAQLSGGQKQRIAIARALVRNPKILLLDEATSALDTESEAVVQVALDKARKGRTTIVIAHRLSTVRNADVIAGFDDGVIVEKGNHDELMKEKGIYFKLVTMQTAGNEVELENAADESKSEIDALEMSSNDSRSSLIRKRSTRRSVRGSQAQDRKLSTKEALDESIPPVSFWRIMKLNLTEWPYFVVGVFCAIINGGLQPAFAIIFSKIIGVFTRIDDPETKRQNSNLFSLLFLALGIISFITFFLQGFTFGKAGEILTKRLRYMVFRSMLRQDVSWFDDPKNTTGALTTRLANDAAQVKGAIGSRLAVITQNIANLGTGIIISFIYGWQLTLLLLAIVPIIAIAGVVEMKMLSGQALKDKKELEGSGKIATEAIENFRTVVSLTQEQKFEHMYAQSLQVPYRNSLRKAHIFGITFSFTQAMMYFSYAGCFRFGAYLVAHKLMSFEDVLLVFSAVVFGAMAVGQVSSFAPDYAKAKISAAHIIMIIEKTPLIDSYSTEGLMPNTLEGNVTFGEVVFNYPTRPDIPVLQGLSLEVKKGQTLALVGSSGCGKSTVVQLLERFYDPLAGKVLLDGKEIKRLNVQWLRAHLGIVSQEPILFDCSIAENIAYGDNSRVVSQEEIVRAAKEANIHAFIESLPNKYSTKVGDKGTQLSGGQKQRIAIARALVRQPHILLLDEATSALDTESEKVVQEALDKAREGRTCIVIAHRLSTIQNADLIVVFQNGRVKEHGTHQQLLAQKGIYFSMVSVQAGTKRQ
# CYP2D6 = CYP2D6 (Homo sapiens, UniProt P10635); assay: In vitro metabolism screening with recombinant CYP2D6; format: in vitro ADME; details: 1 h, 37°C
# CYP2D6, sequence (P10635 whole entry): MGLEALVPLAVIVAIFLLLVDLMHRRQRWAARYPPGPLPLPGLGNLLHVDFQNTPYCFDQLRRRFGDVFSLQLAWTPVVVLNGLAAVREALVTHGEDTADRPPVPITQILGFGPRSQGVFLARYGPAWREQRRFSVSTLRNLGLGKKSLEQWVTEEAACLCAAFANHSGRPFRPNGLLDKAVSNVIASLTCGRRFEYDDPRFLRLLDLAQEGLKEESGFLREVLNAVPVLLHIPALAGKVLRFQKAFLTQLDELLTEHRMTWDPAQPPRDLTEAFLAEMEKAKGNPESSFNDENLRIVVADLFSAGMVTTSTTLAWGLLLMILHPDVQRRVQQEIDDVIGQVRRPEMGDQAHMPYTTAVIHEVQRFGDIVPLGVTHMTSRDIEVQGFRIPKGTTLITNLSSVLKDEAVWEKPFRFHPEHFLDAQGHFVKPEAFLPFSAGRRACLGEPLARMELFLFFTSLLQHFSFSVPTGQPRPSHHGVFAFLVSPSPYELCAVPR
# [5] = humans ref 13; cited from earlier work
# CYP2E1 = CYP2E1 (Homo sapiens, UniProt P05181); assay: In vitro metabolism screening with recombinant CYP2E1; format: in vitro ADME; details: 1 h, 37°C
# CYP2E1, sequence (P05181 whole entry): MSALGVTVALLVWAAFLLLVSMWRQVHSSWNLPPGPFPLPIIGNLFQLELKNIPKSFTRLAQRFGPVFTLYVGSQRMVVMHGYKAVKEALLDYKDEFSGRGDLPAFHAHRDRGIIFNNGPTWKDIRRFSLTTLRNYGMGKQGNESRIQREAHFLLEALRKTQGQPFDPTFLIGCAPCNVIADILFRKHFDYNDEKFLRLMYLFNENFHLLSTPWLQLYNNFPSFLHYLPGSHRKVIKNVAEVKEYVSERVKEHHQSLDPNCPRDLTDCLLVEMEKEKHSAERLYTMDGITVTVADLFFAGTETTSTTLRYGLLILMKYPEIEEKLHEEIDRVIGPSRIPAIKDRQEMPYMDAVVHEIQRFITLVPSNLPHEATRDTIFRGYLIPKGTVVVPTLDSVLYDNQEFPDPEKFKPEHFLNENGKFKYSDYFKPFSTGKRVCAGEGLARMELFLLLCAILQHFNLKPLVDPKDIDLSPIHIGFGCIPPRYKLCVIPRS
# P-gp = assay: in vitro; details: dog, MDCK-MDR1
# in vitro = details: dog, MDCK-MDR1
# [6] = male, Sprague Dawley, brain, ip, 10 mg/kg
# [7] = male, Sprague Dawley, plasma, ip, 10 mg/kg
smiles,measurement,setting,value
COC(=O)[C@@H]1C[C@H](OC(C)=O)C(=O)[C@H]2[C@@]1(C)CC[C@H]1C(=O)O[C@H](c3ccoc3)C[C@]21C [Salvinorin A],% reduction of initial concentration,"UGT2B7; 5 μM, two hour incubation",51(± 4.00) %
same,% reduction of initial concentration,"UGT2B7; 10 μM, 1 h",18.1(± 5.20) %
same,% reduction of initial concentration,"UGT2B7; 50 μM, 1 h",7(±5.60) %
same,absorptive transport (Papp A→B),[1],not detected
same,elimination half-life,[2],56.6 ± 24.8 min
same,Papp B→A at 5 μM,P-gp (MDR1),407 nm/s
same,t1/2,[3]; brain,36.1 min
same,Kp,"[3]; male, Sprague Dawley, brain and plasma, ip, 10 mg/kg",0.05
same,AUC(0-inf),[3]; [6],0.0206 µg·h/mL
same,AUC(0-t),[3]; [6],0.013 µg·h/mL
same,Cmax,[3]; [6],0.0239 µg/mL
same,Tmax,[3]; [6],10 min
same,half-life,"[3]; male, Sprague Dawley, brain, ip, 10 mg/kg, t1/2, brain",36 min
same,Tmax,"[3]; male, Sprague Dawley, plasma and brain, ip, 10 mg/kg",10 to 15 min
same,AUC(0-inf),[3]; [7],0.41 µg·h/mL
same,AUC(0-t),[3]; [7],0.348 µg·h/mL
same,CL/F,[3]; [7],26 L/h/kg
same,Cmax,[3]; [7],0.345 µg/mL
same,Tmax,[3]; [7],15 min
same,k el,[3]; [7],0.000153 s⁻¹
same,half-life,"[3]; male, Sprague Dawley, plasma, ip, 10 mg/kg, t1/2, plasma",75 min
same,k el,"[3]; male, Sprague-Dawley, brain, ip, 10 mg/kg",3.19e-05 s⁻¹
same,Vd/F,"[3]; male, Sprague-Dawley, plasma, ip, 10 mg/kg",47.1 L/kg
same,t1/2,[3]; plasma,75.4 min
same,time to peak brain uptake after dosing,[4],40 s
same,% reduction of initial concentration,CYP2C18; 5 μM,20.6(±1.00) %
same,% reduction of initial concentration,CYP2C18; 50 μM,6(±1.2) %
same,% reduction of initial concentration,CYP1A1; 5 μM,31.1±1.20% and 31.1(±1.20) %
same,% reduction of initial concentration,CYP1A1; 50 μM,5.3(±2) %
same,rate of ATP consumption (P-gp ATPase activity),recombinant human P-gp; 2.5 μM,50.94 ± 17.87 pmol/μg P-gp/min
same,Fold Stimulation of P-gp ATPase activity,recombinant human P-gp; 2.5 μM,2.39
same,rate of ATP consumption (P-gp ATPase activity),recombinant human P-gp; 5 μM,47.48 ± 3.36 pmol/μg P-gp/min and 47.78 ± 3.36 ^a pmol/μg P-gp/min
same,Fold Stimulation of P-gp ATPase activity,recombinant human P-gp; 5 μM,2.24
same,rate of ATP consumption (P-gp ATPase activity),recombinant human P-gp; 10 μM,41.14 ± 5.86 pmol/μg P-gp/min and 41.14 ± 5.86 ^b pmol/μg P-gp/min
same,Fold Stimulation of P-gp ATPase activity,recombinant human P-gp; 10 μM,1.93
same,rate of ATP consumption (P-gp ATPase activity),recombinant human P-gp; 25 μM,31.08 ± 21.18 pmol/μg P-gp/min
same,Fold Stimulation of P-gp ATPase activity,recombinant human P-gp; 25 μM,1.46
same,% reduction of initial concentration,CYP2D6; 5 μM,14.7±0.80% and 14.7(± 0.80) %
same,% reduction of initial concentration,CYP2D6; 50 μM,10(± 1.2) %
same,duration of hallucinogenic experience,[5],≤ 15 min
same,time to appearance of hallucinogenic experience,[5],less than 1 min
same,% reduction of initial concentration,CYP2E1; 5 μM,22(±0.80) %
same,% reduction of initial concentration,CYP2E1; 50 μM,6.4(±1.6) %
CC(=O)O[C@H]1C(=O)[C@@]2(C)[C@H]([C@H](OC(=O)c3ccccc3)[C@]3(O)C[C@H](OC(=O)[C@H](O)[C@@H](NC(=O)c4ccccc4)c4ccccc4)C(C)=C1C3(C)C)[C@]1(OC(C)=O)CO[C@@H]1C[C@@H]2O [paclitaxel],efflux ratio,P-gp,15.2
"OC[C@@H](O)[C@@H](O)[C@H](O)[C@H](O)CO [Mannitol, mannitol]",Papp,in vitro,32.3 nm/s
